The values that follow come from PMC7946228, “Discovery of novel candidates for anti-liposarcoma therapies by medium-scale high-throughput drug screening” (PLoS ONE, 2021).

Data set [1] deals with cancer cells isolated from primary liposarcoma tumors. Nature of the data set: Ex vivo cultures of patient-derived tumor cells, ATP viability 72h. As to conditions: 1 nM to 10 μM, patients 1-3. In kind it is cell-based, human. The protocol: 349 compounds from anti-cancer Selleck Chemical library were pre-aliquoted at five concentrations, increasing in 10-fold steps from 1 nM to 10 μM, in 384-well plates using an Echo Liquid Handler. Each plate also contained positive (benzethonium chloride, BzCl) and negative (DMSO only) controls. Additional drugs were added manually to the same plates at the same concentration range. Cells were seeded directly into the plates containing the drugs. After 72h viability was assessed through levels of ATP, with Cell Titer Glow assay (Promega, Wisconsin, United States) and luminescence quantified using a […]. Data from drug screens were analyzed with R version 3.4.0 (R_Core_Team, 2017) normalized to median positive (BzCl) and median negative (DMSO) controls using formula: (drug-BzCl)/(DMSO–BzCl), with total viability calculated as the area under the curve over all five drug concentrations, adjusted using qualitatively constrained quantile smoothing splines, R package ‘cobs’ version 1.3–3 [22]. The raw values of positive (BzCl) and median negative (DMSO) controls on each assay plate were aggregated and used to calculate z’-factors, as a measure of assay performance and data quality, with a z’-factor > 0.5 representing acceptable data. For two cases where the z’-factor was below 0.5, strictly standardized mean difference (SSMD) was additionally calculated, giving the population value (β) of SSMD -4 and -5, respectively, indicating good quality. Data visualization was done in R using ‘ComplexHeatmaps’ package version 1.20.0 [24]. The same assay was also used when assessing viability of non-tumor cells and tumor explants.
Explants of tumors from patients with liposarcoma were made using Tumor Dissociation Kit and gentleMACS Dissociator (both Miltenyi Biotec, Germany) according to the manufacturer’s instructions. […]
Next, we tested the selected candidate drugs on cancer cells isolated from primary liposarcoma tumors that were available during the study (Fig 5, bottom panel). […] Cell viability was assessed by measuring ATP after 72h. […]

The test system of data set [2] is liposarcoma cell lines. Nature of the data set: Drug withdrawal, reversibility of growth arrest. It is filed as cell-based, human. As to conditions: for reversibility of growth inhibition after drug removal: 120h treatment at growth arresting concentration, then 72h without drug, except T778 with MLN9708. The method, then: The cellular proliferation rate was measured using the IncuCyte ZOOM live-cell imaging system (Essen Bioscience, Birmingham, UK) with the corresponding software application (version 2013BRev1). First the growth rate for each cell line was established to estimate the seeding numbers of cells corresponding to 15–30% of confluence at the start of the experiment and maximum 70% after 72h. The drug treatment was initiated approximately 18h after seeding. The proliferation rate was measured as cell confluence over time through the acquisition of photographs under phase contrast every third hour for the entire duration of the drug treatment. During the drug treatment, media were not changed, and cells were not split. The growth reducing drug concentration was defined as lowest drug concentration leading to significant decrease of cellular growth between 40 and 72h after start of treatment. To determine that concentration, plots were generated using IncuCyte software and differences in growth between 40 and 72h were calculated using least-square means with the ‘emmeans’ R package version 1.4.3 [25]. Growth arresting concentrations were defined as minimal drug concentration under which cell confluence between 96 and 120h increases by less than 3%. Though growth arrest occurred much earlier, these time points ensured that the growth arrest is a stable phenomenon. These growth arresting concentrations were used for drug withdrawal, apoptosis and cell cycle experiments. All the data were verified with the plots. The presented values correspond to median values from two (T449, all compounds) to five (all cell lines, triptolide) biological replicates.
An important prerequisite for clinical implementation of these compounds as treatment for liposarcoma is irreversibility of the induced growth inhibition. We thus assessed if the drugs were only transiently cytostatic, which is especially important in case of the compounds that seem to work mainly via cell cycle arrest (APO866, GSK2126458). Cells were treated with the compounds at growth arresting concentrations for 120h after which the compounds were removed and cell numbers were monitored for another 72h. […] To irreversibly arrest cell proliferation GSK2126458 had to be used at 10x higher concentrations (100x for GOT3) (S5 Fig). Those concentrations are above physiological ranges (see Table 2), and these effects should be accounted for assessing use of GSK2126458 in clinic.

Data set [3] relates to liposarcoma cell lines. Nature of the data set: TUNEL apoptosis assay by flow cytometry. In kind it is cell-based, human. Particulars: growth arresting concentration, 17-72h, majority of cell lines. The method, then: (§1) Cells were treated with drugs at the concentrations corresponding to previously established growth arresting concentrations and collected between 17 and 72h. Time of collection was individual for every drug/cell line combination; cells were collected after the beginning of complete growth inhibition (based on the growth curves data) but only when first signs of morphological change or cell death were visible (estimated microscopically approximately every 2h). After methanol fixation, cells were barcoded with different combinations of Pacific Blue/Pacific Orange dyes (Thermo Fisher Scientific) for different drug treatments. After mixing, cells were incubated in the TUNEL reaction mix for 1h at 37°C, according to the manufacturer’s instructions (Roche, Germany), stained with Streptavidin-Cy5 conjugated Ab and digested with RNAse. Cells were counter-stained with propidium iodide and analyzed using LSR II Flow Cytometer (BD Biosciences, NJ, USA. The data were processed with FlowJo Version 7.6.5 (Tree Star, Ashland, USA). The gating strategy is presented in Fig 3A. Cy-5 positive cells (as compared to control sample) were calculated as apoptotic. Cell cycles of non-apoptotic cells were analyzed using the built in FlowJo Cell Cycle Analysis module. Three independent biological replicates were done for each cell line/drug combination with exception of FU-DDLS-1 and T1000 –for which we only had two replicates available.
On the technique in general: A flow cytometer gives signals particle by particle.

The conditions of data set [4]: cited from earlier work.
Data set [5] has as its system liposarcoma cell lines. The data set is described as follows: Cell cycle analysis of non-apoptotic cells (propidium iodide). As to conditions: growth arresting concentration, non-apoptotic fraction. In kind it is cell-based, human. The protocol: as §1

Read-outs that look alike come from different tables or passages of the source. Bounds are passed on as bounds.

As for `O=C(/C=C/c1cccnc1)NCCCCC1CCN(C(=O)c2ccccc2)CC1` [APO866], the “efficacy against primary tumor cells from liposarcoma patients” value (“efficacy against primary tumor cells” below) in data set [1] is listed as “most varied”. The “reversibility of growth inhibition after drug removal” value (“reversibility of growth inhibition” below) in the data set with liposarcoma cell lines [2] is listed as “irreversibly inhibited growth of all tested cell lines”. For the same compound, the “apoptosis (increase in % of apoptotic cells)” value in the data set with liposarcoma cell lines [3] is on record as at most 5%. Further, the “mean steady state serum concentration (Css)” value in data set [4] (24 patients with advanced solid malignancies) is given as 14 nM. For the same compound, in the data set on liposarcoma cell lines [5], the “cell cycle phase in which cells are blocked” value (“cell cycle phase” below) is recorded as “less specific arrest”.

For `Cn1cc(CNCC2CCN(c3ncc(C(=O)NO)cn3)CC2)c2ccccc21` [JNJ-26481585], the “reversibility of growth inhibition” value in the data set on liposarcoma cell lines [2] is given as “irreversibly inhibited growth of all tested cell lines”. Besides, the “apoptosis (increase in % of apoptotic cells)” value in the data set with liposarcoma cell lines [3] is “above 5%”. The Cmax in data set [4] (dosing schedule recommended for phase II, patients with solid tumors) was 1.5 to 14 nM. The “cell cycle phase” value in the data set on liposarcoma cell lines [5] is “G1 and G2 phases”.

Turning to `CC(C)[C@]12O[C@H]1[C@@H]1O[C@]13[C@]1(O[C@H]1C[C@H]1C4=C(CC[C@@]13C)C(=O)OC4)[C@@H]2O` [Triptolide], in data set [1], the “efficacy against primary tumor cells” value is “most efficient for all the samples”. Also, the “reversibility of growth inhibition” value in the data set with liposarcoma cell lines [2] was “irreversibly inhibited growth of all tested cell lines”. Moreover, the “apoptosis (increase in % of apoptotic cells)” value with liposarcoma cell lines [3] is on record as “above 15%”. The Cmax in data set [4] (read-out: maximum therapeutic plasma concentration (Cmax), in humans) was 150 to 400 nM. Besides, the “cell cycle phase” value in the data set on liposarcoma cell lines [5] is listed as “S phase”.

As to `COCCn1c2c([n+](Cc3cnccn3)c1C)C(=O)c1ccccc1C2=O` [YM155], the “efficacy against primary tumor cells” value in data set [1] is recorded as “good response”. Besides, the “reversibility of growth inhibition” value in the data set on liposarcoma cell lines [2] is “Some cell lines such as LPS141, T778 and SA-4 resumed growth”. In addition, the “concentration needed for irreversible growth arrest relative to growth arresting concentration” value with liposarcoma cell lines [2] (cell lines that resumed growth, 100x for GOT3 with GSK2126458) is 10 x higher. The “apoptosis (increase in % of apoptotic cells)” value in the data set on liposarcoma cell lines [3] is given as “above 5%”. For the same compound, the Css in data set [4] (phase I, maximum tolerated dose) was 17 nM. Further, the Cmax in data set [4] (read-out: clinically relevant concentration (Cmax or Css), values show Cmax or Css (italics), patients) is 17 nM. For the same compound, the “cell cycle phase” value with liposarcoma cell lines [5] is “less specific arrest”.
